Measurements reported in patent US20260262643A1, “HERBICIDAL BENZOXAZINES” (FMC CORPORATION, priority 2022, published 2026).

Assays:
galium = test: Test A postemergence; type: in vivo, Galium aparine; details: Galium, post-emergence, 240 h, read-out: Plant response rating, Galium
In short: (§1)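 Plants were grown in loam and sand and treated preemergence or postemergence (one- to two-leaf stage, 2–10 cm) with compound in solvent plus surfactant. Response was scored against untreated controls after 10 greenhouse days, where 0 means no effect and 100 complete control.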

foxtail, giant = test: Test A preemergence; type: in vivo, Setaria faberi; details: Setaria faberi, pre-emergence, 240 h, read-out: Plant response rating, Foxtail, Giant
In short: as §1

soybean = test: Test A postemergence; type: in vivo, Glycine max; details: Glycine max, post-emergence, 240 h, read-out: Plant response rating, Soybean
In short: as §1

rice = test: Test B flooded paddy test; type: in vivo, Oryza sativa; details: Oryza sativa, 312 h; 250 g ai/ha, Flood, 13 days, 0 to 100 scale (0 no effect, 100 complete control); read-out: Plant response rating, Rice
In short: (§2)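 Application into standing water (3 cm above soil) at the two-leaf stage; flood depth held constant. Evaluation: day 13, visual comparison with controls, 0 = no injury, 100 = complete control.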

horseweed = test: Test A postemergence; type: in vivo, Erigeron canadensis; details: Erigeron canadensis, post-emergence, 240 h, read-out: Plant response rating, Horseweed
In short: as §1

ryegrass, Italian = test: Test A postemergence; type: in vivo, Lolium multiflorum; details: Lolium multiflorum, post-emergence, 240 h, read-out: Plant response rating, Ryegrass, Italian
In short: as §1

oat, wild = test: Test A preemergence; type: in vivo, Avena fatua; details: Avena fatua, pre-emergence, 240 h, read-out: Plant response rating, Oat, Wild
In short: as §1

barnyardgrass = test: Test B flooded paddy test; type: in vivo, Echinochloa crus-galli; details: Echinochloa crus-galli, 312 h, 250 g ai/ha, Flood, 13 days, 0 to 100 scale (0 no effect, 100 complete control); read-out: Plant response rating, Barnyardgrass
In short: as §2

sedge, umbrella = test: Test B flooded paddy test; type: in vivo, Cyperus difformis; details: Cyperus difformis, 312 h; 250 g ai/ha, Flood, 13 days, 0 to 100 scale (0 no effect, 100 complete control); read-out: Plant response rating, Sedge, Umbrella
In short: as §2

wheat = test: Test A preemergence; type: in vivo, Triticum aestivum; details: Triticum aestivum, pre-emergence, 240 h, read-out: Plant response rating, Wheat
In short: as §1

kochia [1] = test: Test A postemergence; type: in vivo, Bassia scoparia; details: Bassia scoparia, post-emergence, 240 h, read-out: Plant response rating, Kochia
In short: as §1

corn = test: Test A preemergence; type: in vivo, Zea mays; details: Zea mays, pre-emergence, 240 h
In short: as §1

kochia [2] = test: Test A preemergence; type: in vivo, Bassia scoparia; details: Bassia scoparia, pre-emergence, 240 h, read-out: Plant response rating, Kochia
In short: as §1

goosegrass = test: Test A preemergence; type: in vivo, Eleusine indica; details: Eleusine indica, pre-emergence, 240 h, read-out: Plant response rating, Goosegrass
In short: as §1

[3] = 125 g ai/ha, postemergence, 10 days, visual injury, 0 to 100 scale (0 no effect, 100 complete control)
[4] = 500 g ai/ha, Postemergence, 0 to 100 scale
[5] = 125 g ai/ha, visual injury after 10 days, 0 to 100 scale, 0 is no effect, 100 is complete control
[6] = 500 g ai/ha, 0 to 100 scale (0 no effect, 100 complete control), 10 days

`COc1ccc(-n2cncn2)cc1C(=O)N1C[C@H](C)Oc2c(C)cccc21` [Compound 63, [(2S)-2,3-Dihydro-2,8-dimethyl-4H-1,4-benzoxazin-4-yl][2-methoxy-5-(1H-1,2,4-triazol-1-yl)phenyl]methanone] showed a pest or weed control at 125 g/ha (galium; [3]) of 100%, a pest or weed control at 500 g/ha (galium; [4]) of 100% and a pest or weed control at 125 g/ha (foxtail, giant; [5]) of 100%. It also gave a pest or weed control at 500 g/ha (foxtail, giant; [6]) of 100%, a plant injury at 125 g/ha (soybean; [3]) of 100% and a plant injury at 500 g/ha (soybean; [4]) of 100%. For the same compound, the plant injury at 250 g/ha (rice) was 0%, the pest or weed control at 125 g/ha (horseweed; [3]) was 20% and the pest or weed control at 500 g/ha (horseweed; [4]) was 40%. The pest or weed control at 125 g/ha (ryegrass, Italian; [3]) was 80%, the pest or weed control at 500 g/ha (ryegrass, Italian; [4]) was 100% and the pest or weed control at 125 g/ha (oat, wild; [5]) was 60%. It also gave a pest or weed control at 500 g/ha (oat, wild; [6]) of 90%, a pest or weed control at 250 g/ha (barnyardgrass) of 0% and a pest or weed control at 250 g/ha (sedge, umbrella) of 98%. The plant injury at 125 g/ha (wheat; [5]) was 40%, the plant injury at 500 g/ha (wheat; [6]) was 90% and the pest or weed control at 125 g/ha (kochia [1]; [3]) was 10%. It also gave a pest or weed control at 500 g/ha (kochia [1]; [4]) of 20%, a Corn plant response rating (crop injury, 0 = no effect, 100 = complete kill) at 125 g/ha (corn; [5]) of 60% and a Corn plant response rating (crop injury, 0 = no effect, 100 = complete kill) at 500 g/ha (corn; [6]) of 80%. It also gave a pest or weed control at 125 g/ha (kochia [2]; [5]) of 30%, a pest or weed control at 500 g/ha (kochia [2]; [6]) of 40% and a pest or weed control at 125 g/ha (goosegrass; [5]) of 100%. The pest or weed control at 500 g/ha (goosegrass; [6]) was 100%.
